Laboratory results published in patent US11912663B2, “Multi-targeted tyrosine kinase inhibitors and their pharmaceutical uses” (Shanghai AB PharmaTech Ltd., priority 2021, dated 2024).

system: lung cancer cell line (A549); test: tumor cell proliferation inhibition (CTG), lung cancer cell line; assay type: cell-based; settings: Homo sapiens, 72 hours

Structure (SMILES)	IC50
COc1cc2nccc(Oc3c(F)cc(NC(=O)NC4CC4)c(Cl)c3F)c2cc1C(=O)NCCF [IIIb-06]	2500 to 5000 nM
N#CCOc1cc2nccc(Oc3c(F)cc(NC(=O)NC4CC4)c(Cl)c3F)c2cc1C(N)=O [IIIb-58]	< 2500 nM
COc1cc2nccc(Oc3c(F)cc(NC(=O)NC4CC4)c(Cl)c3F)c2cc1C(=O)NCC#N [IIIb-45]	< 2500 nM
COc1cc2nccc(Oc3c(F)cc(NC(=O)NC4CC4)c(Cl)c3F)c2cc1C(=O)NCC(F)(F)F [IIIb-09]	< 2500 nM

biological target: FGFR2 (Homo sapiens (Human), UniProt P21802); test: kinase inhibition, Mobility-Shift Assay; assay type: biochemical; settings: 1.9 μM ATP

Structure (SMILES)	IC50
N#CCOc1cc2nccc(Oc3c(F)cc(NC(=O)NC4CC4)c(Cl)c3F)c2cc1C(N)=O [IIIb-58]	< 50 nM
COc1cc2nccc(Oc3c(F)cc(NC(=O)NC4CC4)c(Cl)c3F)c2cc1C(=O)NCC#N [IIIb-45]	< 50 nM
COc1cc2nccc(Oc3c(F)cc(NC(=O)NC4CC4)c(Cl)c3F)c2cc1C(=O)NCC(F)(F)F [IIIb-09]	50 to 100 nM

biological target: VEGFR1 (FLT1) (Homo sapiens (Human), UniProt P17948); test: kinase inhibition, Mobility-Shift Assay; assay type: biochemical; settings: 278 μM ATP

Structure (SMILES)	IC50
N#CCOc1cc2nccc(Oc3c(F)cc(NC(=O)NC4CC4)c(Cl)c3F)c2cc1C(N)=O [IIIb-58]	< 5 nM
COc1cc2nccc(Oc3c(F)cc(NC(=O)NC4CC4)c(Cl)c3F)c2cc1C(=O)NCC#N [IIIb-45]	< 5 nM
COc1cc2nccc(Oc3c(F)cc(NC(=O)NC4CC4)c(Cl)c3F)c2cc1C(=O)NCC(F)(F)F [IIIb-09]	5 to 10 nM

system: cervical cancer cell lines (Hela); test: tumor cell proliferation inhibition (CTG), cervical cancer cell line; assay type: cell-based; settings: Homo sapiens, 72 hours

Structure (SMILES)	IC50
COc1cc2nccc(Oc3c(F)cc(NC(=O)NC4CC4)c(Cl)c3F)c2cc1C(=O)NCCF [IIIb-06]	< 5 µM
N#CCOc1cc2nccc(Oc3c(F)cc(NC(=O)NC4CC4)c(Cl)c3F)c2cc1C(N)=O [IIIb-58]	< 5 µM
COc1cc2nccc(Oc3c(F)cc(NC(=O)NC4CC4)c(Cl)c3F)c2cc1C(=O)NCC#N [IIIb-45]	< 5 µM
COc1cc2nccc(Oc3c(F)cc(NC(=O)NC4CC4)c(Cl)c3F)c2cc1C(=O)NCC(F)(F)F [IIIb-09]	< 5 µM

system: gastric cancer cell line (SNU16); test: tumor cell proliferation inhibition (CTG), gastric cancer cell line; assay type: cell-based; settings: Homo sapiens, SNU-16, 72 hours, read-out: SUN16 IC50

Structure (SMILES)	IC50
COc1cc2nccc(Oc3c(F)cc(NC(=O)NC4CC4)c(Cl)c3F)c2cc1C(=O)NCCF [IIIb-06]	> 10 µM
N#CCOc1cc2nccc(Oc3c(F)cc(NC(=O)NC4CC4)c(Cl)c3F)c2cc1C(N)=O [IIIb-58]	< 5 µM
COc1cc2nccc(Oc3c(F)cc(NC(=O)NC4CC4)c(Cl)c3F)c2cc1C(=O)NCC#N [IIIb-45]	< 5 µM
COc1cc2nccc(Oc3c(F)cc(NC(=O)NC4CC4)c(Cl)c3F)c2cc1C(=O)NCC(F)(F)F [IIIb-09]	< 5 µM

biological target: VEGFR2 (KDR) (Homo sapiens (Human), UniProt P35968); test: kinase inhibition, Mobility-Shift Assay; assay type: biochemical; settings: VEGFR2, 92 μM ATP
Sequence (P35968 20-1356): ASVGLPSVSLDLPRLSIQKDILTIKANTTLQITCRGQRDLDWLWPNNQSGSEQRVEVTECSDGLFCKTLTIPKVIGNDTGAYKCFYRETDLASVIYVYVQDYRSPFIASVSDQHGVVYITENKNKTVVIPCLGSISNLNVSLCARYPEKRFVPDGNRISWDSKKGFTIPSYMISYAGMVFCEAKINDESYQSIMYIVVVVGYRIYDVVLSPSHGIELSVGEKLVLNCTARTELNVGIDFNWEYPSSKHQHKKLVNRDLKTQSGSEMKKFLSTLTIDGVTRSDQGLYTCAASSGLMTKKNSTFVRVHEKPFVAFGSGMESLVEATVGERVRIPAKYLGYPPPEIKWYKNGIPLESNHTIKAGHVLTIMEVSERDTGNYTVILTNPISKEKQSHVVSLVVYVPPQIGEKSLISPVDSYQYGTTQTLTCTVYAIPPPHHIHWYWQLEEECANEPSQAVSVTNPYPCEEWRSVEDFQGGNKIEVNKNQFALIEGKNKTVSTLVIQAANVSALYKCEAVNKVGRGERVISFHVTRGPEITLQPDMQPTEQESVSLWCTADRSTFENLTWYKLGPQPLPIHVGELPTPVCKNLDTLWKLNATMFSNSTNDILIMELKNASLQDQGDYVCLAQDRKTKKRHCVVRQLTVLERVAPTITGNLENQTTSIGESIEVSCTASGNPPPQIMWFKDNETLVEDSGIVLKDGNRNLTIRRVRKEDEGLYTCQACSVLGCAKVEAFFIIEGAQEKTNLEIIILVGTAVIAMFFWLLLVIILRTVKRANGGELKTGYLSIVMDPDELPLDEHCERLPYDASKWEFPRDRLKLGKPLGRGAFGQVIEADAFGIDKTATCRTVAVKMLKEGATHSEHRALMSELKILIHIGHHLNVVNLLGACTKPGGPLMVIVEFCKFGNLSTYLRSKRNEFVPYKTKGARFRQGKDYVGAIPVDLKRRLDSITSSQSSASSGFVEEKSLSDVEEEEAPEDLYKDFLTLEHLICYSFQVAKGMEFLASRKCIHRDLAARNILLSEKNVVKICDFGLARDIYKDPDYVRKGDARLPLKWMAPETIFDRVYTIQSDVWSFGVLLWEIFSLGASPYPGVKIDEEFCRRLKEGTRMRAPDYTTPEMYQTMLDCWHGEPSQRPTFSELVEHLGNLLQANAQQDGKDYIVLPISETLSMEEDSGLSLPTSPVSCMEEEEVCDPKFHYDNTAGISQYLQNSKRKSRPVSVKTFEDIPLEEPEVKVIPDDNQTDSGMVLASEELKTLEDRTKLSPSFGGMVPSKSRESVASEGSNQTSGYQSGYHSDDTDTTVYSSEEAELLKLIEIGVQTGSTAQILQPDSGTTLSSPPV

Structure (SMILES)	IC50
N#CCOc1cc2nccc(Oc3c(F)cc(NC(=O)NC4CC4)c(Cl)c3F)c2cc1C(N)=O [IIIb-58]	< 5 nM
COc1cc2nccc(Oc3c(F)cc(NC(=O)NC4CC4)c(Cl)c3F)c2cc1C(=O)NCC#N [IIIb-45]	< 5 nM
COc1cc2nccc(Oc3c(F)cc(NC(=O)NC4CC4)c(Cl)c3F)c2cc1C(=O)NCC(F)(F)F [IIIb-09]	< 5 nM

system: prostatic cancer (PC-3); test: tumor cell proliferation inhibition (CTG), PC-3; assay type: cell-based; settings: 72 hours

Structure (SMILES)	IC50
COc1cc2nccc(Oc3c(F)cc(NC(=O)NC4CC4)c(Cl)c3F)c2cc1C(=O)NCCF [IIIb-06]	> 10 µM
N#CCOc1cc2nccc(Oc3c(F)cc(NC(=O)NC4CC4)c(Cl)c3F)c2cc1C(N)=O [IIIb-58]	5 to 10 µM
COc1cc2nccc(Oc3c(F)cc(NC(=O)NC4CC4)c(Cl)c3F)c2cc1C(=O)NCC#N [IIIb-45]	5 to 10 µM
COc1cc2nccc(Oc3c(F)cc(NC(=O)NC4CC4)c(Cl)c3F)c2cc1C(=O)NCC(F)(F)F [IIIb-09]	> 10 µM

system: not listed separately; test: MTD toxicity test in rats; assay type: in vivo; settings: rat, in vivo, 150 mg/kg

Structure (SMILES)	MTD toxicity test, clinical outcome
N#CCOc1cc2nccc(Oc3c(F)cc(NC(=O)NC4CC4)c(Cl)c3F)c2cc1C(N)=O [IIIb-58]	no abnormalities such as death
COc1cc2nccc(Oc3c(F)cc(NC(=O)NC4CC4)c(Cl)c3F)c2cc1C(=O)NCC#N [IIIb-45]	no abnormalities such as death
COc1cc2nccc(Oc3c(F)cc(NC(=O)NC4CC4)c(Cl)c3F)c2cc1C(=O)NCC(F)(F)F [IIIb-09]	no abnormalities such as death

same assay, conditions: rats, 150 mg/kg, QD, 14 days; heart, liver, lungs, kidneys, stomach, intestines and other organs

Structure (SMILES)	autopsy results of organs
N#CCOc1cc2nccc(Oc3c(F)cc(NC(=O)NC4CC4)c(Cl)c3F)c2cc1C(N)=O [IIIb-58]	did not reveal any abnormal changes
COc1cc2nccc(Oc3c(F)cc(NC(=O)NC4CC4)c(Cl)c3F)c2cc1C(=O)NCC#N [IIIb-45]	did not reveal any abnormal changes
COc1cc2nccc(Oc3c(F)cc(NC(=O)NC4CC4)c(Cl)c3F)c2cc1C(=O)NCC(F)(F)F [IIIb-09]	did not reveal any abnormal changes

biological target: hERG potassium channels (Homo sapiens (Human), UniProt Q12809); test: in vitro inhibitory effect of hERG, whole-cell patch clamp; assay type: cell-based; settings: whole-cell recording, room temperature
Sequence (Q12809 whole entry): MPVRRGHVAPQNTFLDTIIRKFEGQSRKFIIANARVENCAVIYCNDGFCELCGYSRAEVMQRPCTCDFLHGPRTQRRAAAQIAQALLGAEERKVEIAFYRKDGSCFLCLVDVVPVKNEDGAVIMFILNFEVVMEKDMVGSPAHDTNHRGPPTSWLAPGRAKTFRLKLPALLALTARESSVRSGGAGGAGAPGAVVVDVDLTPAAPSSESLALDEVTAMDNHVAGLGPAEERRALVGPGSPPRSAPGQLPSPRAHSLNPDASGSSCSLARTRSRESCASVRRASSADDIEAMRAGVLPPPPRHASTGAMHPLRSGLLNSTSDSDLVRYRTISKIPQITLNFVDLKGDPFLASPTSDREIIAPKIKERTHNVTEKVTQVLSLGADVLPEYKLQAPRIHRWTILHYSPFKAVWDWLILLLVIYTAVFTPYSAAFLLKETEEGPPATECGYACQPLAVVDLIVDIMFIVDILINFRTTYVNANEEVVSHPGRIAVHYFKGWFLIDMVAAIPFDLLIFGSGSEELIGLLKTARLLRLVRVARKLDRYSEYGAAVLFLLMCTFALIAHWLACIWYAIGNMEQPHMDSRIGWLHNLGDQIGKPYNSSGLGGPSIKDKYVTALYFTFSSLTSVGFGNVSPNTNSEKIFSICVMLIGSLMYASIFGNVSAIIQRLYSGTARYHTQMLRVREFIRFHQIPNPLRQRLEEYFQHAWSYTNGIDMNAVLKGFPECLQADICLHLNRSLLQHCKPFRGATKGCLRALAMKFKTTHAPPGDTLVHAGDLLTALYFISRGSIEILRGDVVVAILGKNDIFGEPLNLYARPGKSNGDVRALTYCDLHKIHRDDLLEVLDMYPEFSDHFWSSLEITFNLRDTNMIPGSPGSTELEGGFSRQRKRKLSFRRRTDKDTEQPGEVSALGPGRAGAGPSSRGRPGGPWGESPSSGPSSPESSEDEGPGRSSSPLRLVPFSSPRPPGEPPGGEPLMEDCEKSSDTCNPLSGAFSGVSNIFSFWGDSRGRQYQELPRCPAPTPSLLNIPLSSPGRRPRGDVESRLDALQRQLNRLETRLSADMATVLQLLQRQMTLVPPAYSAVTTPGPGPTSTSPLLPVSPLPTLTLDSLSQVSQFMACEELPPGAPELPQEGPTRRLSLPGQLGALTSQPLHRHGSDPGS

Structure (SMILES)	IC50
COc1cc2nccc(Oc3c(F)cc(NC(=O)NC4CC4)c(Cl)c3F)c2cc1C(=O)NCCF [IIIb-06]	18.7 µM
N#CCOc1cc2nccc(Oc3c(F)cc(NC(=O)NC4CC4)c(Cl)c3F)c2cc1C(N)=O [IIIb-58]	> 30 µM
COc1cc2nccc(Oc3c(F)cc(NC(=O)NC4CC4)c(Cl)c3F)c2cc1C(=O)NCC#N [IIIb-45]	> 30 µM
COc1cc2nccc(Oc3c(F)cc(NC(=O)NC4CC4)c(Cl)c3F)c2cc1C(=O)NCC(F)(F)F [IIIb-09]	> 30 µM

system: kidney cancer cell line (Caki-1); test: tumor cell proliferation inhibition (CTG), kidney cancer cell line; assay type: cell-based; settings: Homo sapiens, 72 hours, read-out: Caki-1 (renal cancer) IC50

Structure (SMILES)	IC50
COc1cc2nccc(Oc3c(F)cc(NC(=O)NC4CC4)c(Cl)c3F)c2cc1C(=O)NCCF [IIIb-06]	2500 to 5000 nM
N#CCOc1cc2nccc(Oc3c(F)cc(NC(=O)NC4CC4)c(Cl)c3F)c2cc1C(N)=O [IIIb-58]	< 2500 nM
COc1cc2nccc(Oc3c(F)cc(NC(=O)NC4CC4)c(Cl)c3F)c2cc1C(=O)NCC#N [IIIb-45]	< 2500 nM
COc1cc2nccc(Oc3c(F)cc(NC(=O)NC4CC4)c(Cl)c3F)c2cc1C(=O)NCC(F)(F)F [IIIb-09]	< 2500 nM

system: hepatocellular carcinoma cell line (Hep3B 2.1-7); test: tumor cell proliferation inhibition (CTG), hepatocellular carcinoma cell line; assay type: cell-based; settings: Homo sapiens, 72 hours

Structure (SMILES)	IC50
COc1cc2nccc(Oc3c(F)cc(NC(=O)NC4CC4)c(Cl)c3F)c2cc1C(=O)NCCF [IIIb-06]	2500 to 5000 nM
N#CCOc1cc2nccc(Oc3c(F)cc(NC(=O)NC4CC4)c(Cl)c3F)c2cc1C(N)=O [IIIb-58]	< 2500 nM
COc1cc2nccc(Oc3c(F)cc(NC(=O)NC4CC4)c(Cl)c3F)c2cc1C(=O)NCC#N [IIIb-45]	< 2500 nM
COc1cc2nccc(Oc3c(F)cc(NC(=O)NC4CC4)c(Cl)c3F)c2cc1C(=O)NCC(F)(F)F [IIIb-09]	< 2500 nM

system: leukemia cell line (K562); test: tumor cell proliferation inhibition (CTG), leukemia cell line; assay type: cell-based; settings: Homo sapiens, 72 hours

Structure (SMILES)	IC50
COc1cc2nccc(Oc3c(F)cc(NC(=O)NC4CC4)c(Cl)c3F)c2cc1C(=O)NCCF [IIIb-06]	5 to 10 µM
N#CCOc1cc2nccc(Oc3c(F)cc(NC(=O)NC4CC4)c(Cl)c3F)c2cc1C(N)=O [IIIb-58]	< 5 µM
COc1cc2nccc(Oc3c(F)cc(NC(=O)NC4CC4)c(Cl)c3F)c2cc1C(=O)NCC#N [IIIb-45]	< 5 µM
COc1cc2nccc(Oc3c(F)cc(NC(=O)NC4CC4)c(Cl)c3F)c2cc1C(=O)NCC(F)(F)F [IIIb-09]	< 5 µM

system: pancreatic cancer cell line (BXPC3); test: tumor cell proliferation inhibition (CTG), pancreatic cancer cell line; assay type: cell-based; settings: Homo sapiens, BXPC-3, 72 hours

Structure (SMILES)	IC50
COc1cc2nccc(Oc3c(F)cc(NC(=O)NC4CC4)c(Cl)c3F)c2cc1C(=O)NCCF [IIIb-06]	> 10 µM
N#CCOc1cc2nccc(Oc3c(F)cc(NC(=O)NC4CC4)c(Cl)c3F)c2cc1C(N)=O [IIIb-58]	< 5 µM
COc1cc2nccc(Oc3c(F)cc(NC(=O)NC4CC4)c(Cl)c3F)c2cc1C(=O)NCC#N [IIIb-45]	< 5 µM
COc1cc2nccc(Oc3c(F)cc(NC(=O)NC4CC4)c(Cl)c3F)c2cc1C(=O)NCC(F)(F)F [IIIb-09]	< 5 µM

system: BXPC3, SNU16, Hep3B 2.1-7 subcutaneous tumors; test: tumor suppression in nude mice with subcutaneously transplanted tumors; assay type: in vivo; settings: BXPC3, SNU16, Hep3B 2.1-7 transplants, within 3-4 weeks
Source text: These preferred compounds (e.g., IIIb-08, IIIb-09, IIIb-45, IIIb-50, IIIb-55, IIIb-56, IIIb-57, IIIb-58, IIIb-60, IIIb-61, IIIb-65) are currently being used to […] in nude mice subcutaneously transplanted with pancreatic cancer cell line (BXPC3), gastric cancer cell line (SNU16), liver cancer cell line (Hep3B 2.1-7) and other tumor suppressive effects have been observed in vivo, the tumor suppression rate of subcutaneous tumors in nude mice could reach 80-110% within 3-4 weeks. […] Therefore, the preferred compounds “IIIb-08, IIIb-09, IIIb-45, IIIb-50, IIIb-55, IIIb-56, IIIb-57, IIIb-58, IIIb-60, IIIb-61, IIIb-65” designed and synthesized by the present invention not only have better inhibitory activity, but also have better safety and drug-forming properties, which are valuable for further preclinical studies such as pharmacotoxicology and clinical trials.

Structure (SMILES)	tumor suppression rate of subcutaneous tumors
N#CCOc1cc2nccc(Oc3c(F)cc(NC(=O)NC4CC4)c(Cl)c3F)c2cc1C(N)=O [IIIb-58]	80-110%
COc1cc2nccc(Oc3c(F)cc(NC(=O)NC4CC4)c(Cl)c3F)c2cc1C(=O)NCC#N [IIIb-45]	80-110%
COc1cc2nccc(Oc3c(F)cc(NC(=O)NC4CC4)c(Cl)c3F)c2cc1C(=O)NCC(F)(F)F [IIIb-09]	80-110%

biological target: RET (Homo sapiens (Human), UniProt P07949); test: kinase inhibition, Mobility-Shift Assay; assay type: biochemical; settings: 23 μM ATP
Sequence (P07949 29-1114): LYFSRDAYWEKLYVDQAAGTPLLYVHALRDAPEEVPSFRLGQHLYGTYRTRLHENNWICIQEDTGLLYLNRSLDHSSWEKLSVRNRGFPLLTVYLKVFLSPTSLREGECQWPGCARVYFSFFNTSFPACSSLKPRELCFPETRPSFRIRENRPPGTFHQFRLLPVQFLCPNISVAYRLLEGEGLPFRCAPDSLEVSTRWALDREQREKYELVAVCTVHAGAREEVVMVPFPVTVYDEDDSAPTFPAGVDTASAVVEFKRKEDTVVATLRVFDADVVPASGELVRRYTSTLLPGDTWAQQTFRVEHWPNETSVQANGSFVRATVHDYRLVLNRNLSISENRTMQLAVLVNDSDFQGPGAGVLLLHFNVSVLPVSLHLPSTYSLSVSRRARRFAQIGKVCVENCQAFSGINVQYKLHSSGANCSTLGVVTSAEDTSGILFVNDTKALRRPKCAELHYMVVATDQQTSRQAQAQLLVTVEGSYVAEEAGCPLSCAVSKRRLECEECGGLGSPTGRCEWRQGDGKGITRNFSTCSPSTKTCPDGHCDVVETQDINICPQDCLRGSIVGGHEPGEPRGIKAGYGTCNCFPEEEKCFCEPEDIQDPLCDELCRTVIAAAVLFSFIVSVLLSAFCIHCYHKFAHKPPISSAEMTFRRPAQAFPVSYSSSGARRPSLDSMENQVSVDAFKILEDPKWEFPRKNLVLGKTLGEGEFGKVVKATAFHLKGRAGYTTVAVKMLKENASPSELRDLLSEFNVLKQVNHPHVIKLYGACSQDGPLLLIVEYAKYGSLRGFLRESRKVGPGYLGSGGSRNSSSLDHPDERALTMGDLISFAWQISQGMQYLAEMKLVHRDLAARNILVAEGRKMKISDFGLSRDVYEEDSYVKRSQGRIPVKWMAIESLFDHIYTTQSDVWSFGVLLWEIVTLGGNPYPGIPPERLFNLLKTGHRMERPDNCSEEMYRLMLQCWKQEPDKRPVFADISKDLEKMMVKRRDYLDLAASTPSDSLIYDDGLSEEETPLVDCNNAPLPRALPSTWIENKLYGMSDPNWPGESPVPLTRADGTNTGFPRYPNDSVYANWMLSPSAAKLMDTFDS

Structure (SMILES)	IC50
N#CCOc1cc2nccc(Oc3c(F)cc(NC(=O)NC4CC4)c(Cl)c3F)c2cc1C(N)=O [IIIb-58]	< 5 nM
COc1cc2nccc(Oc3c(F)cc(NC(=O)NC4CC4)c(Cl)c3F)c2cc1C(=O)NCC#N [IIIb-45]	< 5 nM
COc1cc2nccc(Oc3c(F)cc(NC(=O)NC4CC4)c(Cl)c3F)c2cc1C(=O)NCC(F)(F)F [IIIb-09]	5 to 10 nM

biological target: VEGFR3 (FLT4) (Homo sapiens (Human), UniProt P35916); test: kinase inhibition, Mobility-Shift Assay; assay type: biochemical; settings: 84 μM ATP
Sequence (P35916 25-1363): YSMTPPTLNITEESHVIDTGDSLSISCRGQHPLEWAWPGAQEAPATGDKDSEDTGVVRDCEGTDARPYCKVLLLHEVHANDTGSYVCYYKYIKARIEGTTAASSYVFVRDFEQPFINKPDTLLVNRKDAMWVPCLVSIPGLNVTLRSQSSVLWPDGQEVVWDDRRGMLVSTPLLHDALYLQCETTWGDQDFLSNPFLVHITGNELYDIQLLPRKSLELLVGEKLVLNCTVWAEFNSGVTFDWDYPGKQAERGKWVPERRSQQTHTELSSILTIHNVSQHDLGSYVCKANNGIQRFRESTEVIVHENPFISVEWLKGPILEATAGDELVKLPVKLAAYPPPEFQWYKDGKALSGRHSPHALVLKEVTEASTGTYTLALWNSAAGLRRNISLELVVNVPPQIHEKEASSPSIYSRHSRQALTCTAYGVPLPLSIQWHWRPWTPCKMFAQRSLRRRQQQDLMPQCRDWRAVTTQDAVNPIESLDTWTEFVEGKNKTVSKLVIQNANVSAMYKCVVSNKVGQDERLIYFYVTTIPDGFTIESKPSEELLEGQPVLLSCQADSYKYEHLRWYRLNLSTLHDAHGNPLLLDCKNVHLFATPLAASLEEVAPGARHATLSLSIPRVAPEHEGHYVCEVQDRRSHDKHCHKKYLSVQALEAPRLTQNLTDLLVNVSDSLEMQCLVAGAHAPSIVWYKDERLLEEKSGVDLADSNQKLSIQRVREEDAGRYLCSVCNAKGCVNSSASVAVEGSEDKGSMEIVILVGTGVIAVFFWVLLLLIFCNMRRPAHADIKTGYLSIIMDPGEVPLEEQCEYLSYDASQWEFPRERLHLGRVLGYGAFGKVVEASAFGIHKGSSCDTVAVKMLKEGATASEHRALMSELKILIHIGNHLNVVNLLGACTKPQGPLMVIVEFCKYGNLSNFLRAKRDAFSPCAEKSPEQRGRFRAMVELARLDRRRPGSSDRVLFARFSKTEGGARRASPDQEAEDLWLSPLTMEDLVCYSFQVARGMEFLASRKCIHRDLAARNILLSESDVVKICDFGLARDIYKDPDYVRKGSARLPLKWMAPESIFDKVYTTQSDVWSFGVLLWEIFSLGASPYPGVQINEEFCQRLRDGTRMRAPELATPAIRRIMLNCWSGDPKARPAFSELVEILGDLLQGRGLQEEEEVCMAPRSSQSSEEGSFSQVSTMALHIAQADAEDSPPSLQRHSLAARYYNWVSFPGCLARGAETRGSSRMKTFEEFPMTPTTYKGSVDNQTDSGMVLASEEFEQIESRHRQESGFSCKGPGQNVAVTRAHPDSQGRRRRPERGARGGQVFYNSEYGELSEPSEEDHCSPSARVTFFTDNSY

Structure (SMILES)	IC50
N#CCOc1cc2nccc(Oc3c(F)cc(NC(=O)NC4CC4)c(Cl)c3F)c2cc1C(N)=O [IIIb-58]	< 5 nM
COc1cc2nccc(Oc3c(F)cc(NC(=O)NC4CC4)c(Cl)c3F)c2cc1C(=O)NCC#N [IIIb-45]	< 5 nM
COc1cc2nccc(Oc3c(F)cc(NC(=O)NC4CC4)c(Cl)c3F)c2cc1C(=O)NCC(F)(F)F [IIIb-09]	< 5 nM
